According to paper PMC11191317, “PNSC928, a plant-derived compound, specifically disrupts CtBP2-p300 interaction and reduces inflammation in mice with acute respiratory distress syndrome” (Biology Direct, 2024):

What was measured:
[1] = test system: MPAEpiC, RAW264.7, FL83B, TKPTS, and HL-1 cells; assay: Cell viability assay in normal cell lines; format: cell-based, mouse; conditions: for Cell growth (cell viability) at lower doses: co-treated with LPS, MTOB 5 mM, NSC95397 10 µM, C646 3 µM, A-485 5 nM, TPCA1 150 nM, BOT64 1 µM; for Cell growth (cell viability assay): assessed every 24 h for 5 days
Excerpt: Mouse pulmonary alveolar epithelial cells (MPAEpiC) were sourced from ScienCell Research Laboratories (Carlsbad, CA, USA; #M3200-57). The mouse macrophage cell line RAW 264.7 (#TIB-71), the mouse liver hepatocyte cell line FL83B (#CRL-2390), and the mouse kidney epithelial-like cell line TKPTS (#CRL-3361) were sourced from the American Type Culture Collection (ATCC) (Manassas, VA, USA). Additionally, the mouse cardiac muscle cell line HL-1 (SCC065) was acquired from Sigma-Aldrich. All cell lines were maintained in Dulbecco’s Modified Eagle Medium (DMEM) (Thermo Fisher; #A1048901) fortified with 10% fetal bovine serum (FBS) (Thermo Fisher; #A5256701) and a combination of 100 U/mL penicillin and streptomycin (Thermo Fisher; #15,140,122). Cells were cultured in a 37 °C incubator with 5% CO2, and the medium was changed every 2–3 days. For targeted gene manipulation, cells were transfected with gene-specific short hairpin RNAs (shRNAs) (Table S1) or plasmids (Table S2). Transfection was facilitated using the Lipofectamine 3000 Transfection Reagent (Thermo Fisher; #L3000001) as per the manufacturer’s recommended protocol.
(§1) For LPS treatment, different knockdown (KD) cell lines—Control^KD, CtBP2^KD, p300^KD, and p65^KD, all derived from MPAEpiC—were seeded in 12-well plates and cultured at 37 °C until reaching 80% confluence. The cells were then treated with 200 ng/mL of LPS for 6 h, washed three times with PBS, and subjected to the required experiments. For experiments involving inhibitors of CtBP2, p300, and NF-κB, as well as the compound PNSC928, MPAEpiC, RAW264.7, FL83B, TKPTS, and HL-1 cells were seeded in 12-well plates and cultured at 37 °C to reach 80% confluence. Cells were then cotreated with 200 ng/mL LPS along with varying concentrations of the following chemicals: MTOB (0, 5, 10, or 20 mM), NSC95397 (0, 10, 20, or 40 µM), C646 (0, 3, 6, or 12 µM), A-485 (0, 5, 10, or 20 nM), TPCA1 (0, 150, 300, or 600 nM), BOT64 (0, 1, 2, or 4 µM), or PNSC928 (0, 11.8, 23.6, or 47.2 µM). After 6 h of treatment, cells were washed three times with PBS before proceeding with further experiments.
Fig. 5 Determination of PNSC928 cytotoxicity and evaluation of PNSC928 effects on the expression levels of CtBP2/p300/NF-κB target genes. (A-E) Cell viability assessment. Five cell lines, including MPAEpiC (A), RAW264.7 (B), FL83B (C), TKPTS (D), and HL-1 (E) were treated with varying concentrations of PNSC928 ([…]). Cell viability was assessed every 24 h for 5 days. (F-I) Effects of PNSC928 on gene expression levels. The RAW264.7 cells were co-treated with LPS and PNSC928 (23.6 and 47.2 µM) for a duration of 6 h. Subsequently, RNA isolation and RT-qPCR analysis were performed to quantify mRNA levels of various genes. (F) The mRNA levels of IL-1B, IL-6, IL-15, IL-18, TNFA, and IFNG. (G) The mRNA levels of CDH1, CDKN1A, CDKN2A, CHRD, PAX6, and BAX. (H) The mRNA levels of NOD2, CCL2, CXCL10, CXCL12, MMP1, and STAT1 mRNA levels, (I) The mRNA levels of MIP2, CCR5, GM-CSF, COX2, and iNOS. n = 3 for each experiment. ns: no significant difference. **P < 0.01; ***P < 0.001
Five cell lines (MPAEpiC, RAW264.7, FL83B, TKPTS, and HL-1) were treated with MTOB (5 and 10 mM), NSC95397 (10 and 20 μM), C646 (3 and 6 μM), A-485 (5 and 10 nM), TCPA1 (150 and 300 nM), and BOT-64 (1 and 2 μM). Cell viability was assessed every 24 hours for 5 days. n=3 for all experiments. *P<0.05.

[2] = test system: MPAEpiC and RAW264.7 cells; assay: RT-qPCR of CtBP2/p300/NF-κB target genes in MPAEpiC and RAW264.7 cells cotreated with LPS and inhibitors; format: cell-based, mouse; conditions: LPS cotreatment, 6 h; for Expression of IL-1B, IL-6, IL-15, IL-18, TNFA, NOD2, CCL2, CXCL10, CXCL12, MMP1, and STAT1 / Expression of other genes under investigation (CtBP2 and NF-κB targets): p300 inhibitors; for Expression levels of IL-1B, IL-6, IL-8, IL-15, TNFA, MIP2, CCR5, GM-CSF, VEGF, COX2, and iNOS / Expression of the other studied genes (CtBP2 and p300 targets): NF-κB inhibitors; for Expression of IL-1B, IL-6, IL-15, IL-18, TNFA, CDH1, CDKN1A, CDKN2A, CHRD, PAX6, and BAX / Expression of the remaining genes (p300 and NF-κB targets): CtBP2 inhibitors
Procedure: as §1
RNA was isolated from both cultured cells and mouse lung tissues utilizing the TRIzol Reagent (Invitrogen; Shanghai, China; #15,596,018) in adherence to the manufacturer’s protocol. For each sample, 500 ng of RNA was employed for the synthesis of complementary DNA (cDNA) leveraging the High-Capacity cDNA Reverse Transcription Kit (Thermo Fisher; #4,368,814). Gene expression quantification was carried out using the SYBR GreenER qPCR SuperMix Universal (Thermo Fisher; #1176202K) in combination with the specific primers delineated in Table S3. Subsequent analysis normalized the expression levels to β-Actin, utilizing the 2^−ΔΔCt method.
The RAW264.7 cells were co-treated with LPS and the following compounds: 5 mM MTOB, 10 μM NSC95397, 3 μM C646, 5 nM A-485, 150 nM TPCA1, or 1 μM BOT64 for a duration of 6 hours. Subsequently, RNA isolation and RT-qPCR analysis were performed to quantify mRNA levels of various genes.
The MPAEpiC cells were co-treated with LPS and the following compounds: 5 mM MTOB, 10 μM NSC95397, 3 μM C646, 5 nM A-485, 150 nM TPCA1, or 1 μM BOT64 for a duration of 6 hours. Subsequently, RNA isolation and RT-qPCR analysis were performed to quantify mRNA levels of various genes.

## CNC(=O)Nc1ccc2c(c1)CC[C@@]21OC(=O)N(CC(=O)N(Cc2ccc(F)cc2)[C@@H](C)C(F)(F)F)C1=O [A-485]
[1]
  Cell growth (cell viability) at lower doses: notable inhibition of cell growth
[2]
  Expression of IL-1B, IL-6, IL-15, IL-18, TNFA, NOD2, CCL2, CXCL10, CXCL12, MMP1, and STAT1: significantly modulated
  Expression of other genes under investigation (CtBP2 and NF-κB targets): no discernible impact

## CC1(C)CC(=O)c2sc(=Nc3ccccc3)oc2C1 [BOT64]
[1]
  Cell growth (cell viability) at lower doses: notable inhibition of cell growth
[2]
  Expression levels of IL-1B, IL-6, IL-8, IL-15, TNFA, MIP2, CCR5, GM-CSF, VEGF, COX2, and iNOS: dose-dependent alteration
  Expression of the other studied genes (CtBP2 and p300 targets): without affecting

## CC1=NN(c2ccc(C(=O)O)cc2)C(=O)/C1=C\c1ccc(-c2cc(C)c(C)cc2[N+](=O)[O-])o1 [C646]
[1]
  Cell growth (cell viability) at lower doses: notable inhibition of cell growth
[2]
  Expression of IL-1B, IL-6, IL-15, IL-18, TNFA, NOD2, CCL2, CXCL10, CXCL12, MMP1, and STAT1: significantly modulated
  Expression of other genes under investigation (CtBP2 and NF-κB targets): no discernible impact

## CSCCC(=O)C(=O)O [MTOB]
[1]
  Cell growth (cell viability) at lower doses: notable inhibition of cell growth
[2]
  Expression of IL-1B, IL-6, IL-15, IL-18, TNFA, CDH1, CDKN1A, CDKN2A, CHRD, PAX6, and BAX: dose-dependent reversal
  Expression of the remaining genes (p300 and NF-κB targets): remained relatively unchanged

## O=C1C(SCCO)=C(SCCO)C(=O)c2ccccc21 [NSC95397]
[1]
  Cell growth (cell viability) at lower doses: notable inhibition of cell growth
[2]
  Expression of IL-1B, IL-6, IL-15, IL-18, TNFA, CDH1, CDKN1A, CDKN2A, CHRD, PAX6, and BAX: dose-dependent reversal
  Expression of the remaining genes (p300 and NF-κB targets): remained relatively unchanged

## CC(=CCCC1=CCC(C2COC(=O)C2)OC1O)CCC1=C(C)CCCC1(C)C (centres unmarked) [PNSC928]
[1]; PNSC928 at 47.2 µM
  Cell growth (cell viability assay): slight inhibition of cell growth
[1]; PNSC928 at lower concentrations (≤ 23.6 µM), all tested cell lines
  Cell growth (cell viability assay): did not inhibit cell growth

## NC(=O)Nc1sc(-c2ccc(F)cc2)cc1C(N)=O [TPCA1]
[1]
  Cell growth (cell viability) at lower doses: notable inhibition of cell growth
[2]
  Expression levels of IL-1B, IL-6, IL-8, IL-15, TNFA, MIP2, CCR5, GM-CSF, VEGF, COX2, and iNOS: dose-dependent alteration
  Expression of the other studied genes (CtBP2 and p300 targets): without affecting
